Data set [1] addresses Tyrosine-protein kinase Yes (Homo sapiens, UniProt P07947). Nature of the data set: Inhibition of Yes1 (unknown origin) using [gamma-33P]ATP after 30 mins by radiometric assay.
The target of data set [2] is Ephrin type-A receptor 2 (Homo sapiens) (UniProt P29317). Nature of the data set: Inhibition of human Eph-A2 using [gamma-33P]ATP assessed as residual activity at 3 uM after 30 mins by radiometric assay.
Data set [3] deals with Tyrosine-protein kinase Lck (Homo sapiens, UniProt P06239). Kind of data set: Inhibition of Lck (unknown origin) using [gamma-33P]ATP after 30 mins by radiometric assay.
In data set [4] the target is T1, Ephrin type-B receptor 1 (Homo sapiens) (UniProt P54762).
T1 sequence (whole entry): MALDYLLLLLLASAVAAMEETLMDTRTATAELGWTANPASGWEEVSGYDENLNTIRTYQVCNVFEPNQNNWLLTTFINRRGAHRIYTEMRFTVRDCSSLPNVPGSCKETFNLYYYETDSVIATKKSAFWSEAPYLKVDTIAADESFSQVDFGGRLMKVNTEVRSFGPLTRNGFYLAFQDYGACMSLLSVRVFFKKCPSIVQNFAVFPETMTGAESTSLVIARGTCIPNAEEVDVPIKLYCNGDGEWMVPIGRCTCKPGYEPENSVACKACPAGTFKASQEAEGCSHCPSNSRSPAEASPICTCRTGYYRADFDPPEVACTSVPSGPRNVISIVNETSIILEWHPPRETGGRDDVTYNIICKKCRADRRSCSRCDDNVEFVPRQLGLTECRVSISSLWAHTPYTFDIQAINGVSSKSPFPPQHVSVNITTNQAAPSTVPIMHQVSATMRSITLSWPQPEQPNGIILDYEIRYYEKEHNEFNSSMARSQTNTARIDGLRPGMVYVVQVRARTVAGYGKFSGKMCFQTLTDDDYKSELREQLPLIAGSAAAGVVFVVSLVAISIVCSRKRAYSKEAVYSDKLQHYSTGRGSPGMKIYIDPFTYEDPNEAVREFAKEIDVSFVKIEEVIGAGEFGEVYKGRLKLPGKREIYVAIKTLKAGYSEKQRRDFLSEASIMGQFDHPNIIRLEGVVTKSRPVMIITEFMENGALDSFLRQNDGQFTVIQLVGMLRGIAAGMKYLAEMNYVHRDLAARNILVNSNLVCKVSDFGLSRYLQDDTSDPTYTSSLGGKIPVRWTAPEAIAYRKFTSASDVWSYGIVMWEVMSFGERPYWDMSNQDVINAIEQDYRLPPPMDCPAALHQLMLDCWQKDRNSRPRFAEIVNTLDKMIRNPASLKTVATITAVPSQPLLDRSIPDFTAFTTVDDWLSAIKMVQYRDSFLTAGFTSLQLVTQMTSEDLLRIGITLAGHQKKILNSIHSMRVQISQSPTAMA
Kind of data set: Inhibition of human Eph-B1 using [gamma-33P]ATP assessed as residual activity at 3 uM after 30 mins by radiometric assay.

In a further data set the target is T2, Ephrin type-B receptor 4 (Homo sapiens, UniProt P54760).
T2 sequence (P54760 whole entry): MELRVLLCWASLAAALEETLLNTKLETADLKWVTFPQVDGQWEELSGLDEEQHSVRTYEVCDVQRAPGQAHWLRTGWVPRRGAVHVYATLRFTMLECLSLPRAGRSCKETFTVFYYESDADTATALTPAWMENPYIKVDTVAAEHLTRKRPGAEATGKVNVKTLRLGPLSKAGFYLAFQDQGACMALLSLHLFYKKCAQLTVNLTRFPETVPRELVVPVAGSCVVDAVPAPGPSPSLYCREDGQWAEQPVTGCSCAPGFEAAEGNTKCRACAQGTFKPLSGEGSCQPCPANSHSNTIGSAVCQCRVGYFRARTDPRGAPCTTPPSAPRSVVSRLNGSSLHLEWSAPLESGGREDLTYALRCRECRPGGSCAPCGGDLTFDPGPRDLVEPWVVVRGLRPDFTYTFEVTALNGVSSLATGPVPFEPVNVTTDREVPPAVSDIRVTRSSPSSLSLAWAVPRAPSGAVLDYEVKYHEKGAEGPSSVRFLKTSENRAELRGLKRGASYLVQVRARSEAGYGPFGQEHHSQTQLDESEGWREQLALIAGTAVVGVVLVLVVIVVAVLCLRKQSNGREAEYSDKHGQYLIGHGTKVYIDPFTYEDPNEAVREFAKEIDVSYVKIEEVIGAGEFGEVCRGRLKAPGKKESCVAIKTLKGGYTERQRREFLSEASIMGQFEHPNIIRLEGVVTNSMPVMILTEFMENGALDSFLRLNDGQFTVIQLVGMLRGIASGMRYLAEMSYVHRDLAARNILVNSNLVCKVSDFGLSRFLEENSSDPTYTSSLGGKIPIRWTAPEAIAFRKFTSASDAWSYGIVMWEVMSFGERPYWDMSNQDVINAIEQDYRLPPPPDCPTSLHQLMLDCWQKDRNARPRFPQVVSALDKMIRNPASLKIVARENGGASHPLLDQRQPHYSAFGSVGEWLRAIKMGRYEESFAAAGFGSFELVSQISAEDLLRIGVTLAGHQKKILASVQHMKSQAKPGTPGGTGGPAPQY

A short description of data set [5]: Apparent permeability from basolateral to apical side in human Caco2 cells after 2 hrs by LC-MS/MS analysis. Conditions: Caco-2. It counts as ADME, cell-based.

Tyrosine-protein kinase Yes, sequence (P07947 whole entry): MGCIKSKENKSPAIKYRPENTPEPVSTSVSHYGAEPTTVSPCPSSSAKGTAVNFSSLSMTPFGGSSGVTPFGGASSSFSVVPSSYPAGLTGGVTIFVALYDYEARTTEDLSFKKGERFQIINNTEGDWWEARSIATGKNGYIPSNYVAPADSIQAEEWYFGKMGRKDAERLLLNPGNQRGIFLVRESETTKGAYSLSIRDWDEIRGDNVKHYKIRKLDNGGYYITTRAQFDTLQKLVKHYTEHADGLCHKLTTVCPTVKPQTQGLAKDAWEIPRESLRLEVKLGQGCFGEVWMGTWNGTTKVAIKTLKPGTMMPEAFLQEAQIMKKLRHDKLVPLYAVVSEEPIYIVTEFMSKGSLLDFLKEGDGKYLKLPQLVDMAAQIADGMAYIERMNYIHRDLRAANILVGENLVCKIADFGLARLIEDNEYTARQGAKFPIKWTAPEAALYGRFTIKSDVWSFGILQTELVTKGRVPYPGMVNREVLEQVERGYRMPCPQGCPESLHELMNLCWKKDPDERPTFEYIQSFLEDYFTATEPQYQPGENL
Tyrosine-protein kinase Lck, sequence (P06239 whole entry): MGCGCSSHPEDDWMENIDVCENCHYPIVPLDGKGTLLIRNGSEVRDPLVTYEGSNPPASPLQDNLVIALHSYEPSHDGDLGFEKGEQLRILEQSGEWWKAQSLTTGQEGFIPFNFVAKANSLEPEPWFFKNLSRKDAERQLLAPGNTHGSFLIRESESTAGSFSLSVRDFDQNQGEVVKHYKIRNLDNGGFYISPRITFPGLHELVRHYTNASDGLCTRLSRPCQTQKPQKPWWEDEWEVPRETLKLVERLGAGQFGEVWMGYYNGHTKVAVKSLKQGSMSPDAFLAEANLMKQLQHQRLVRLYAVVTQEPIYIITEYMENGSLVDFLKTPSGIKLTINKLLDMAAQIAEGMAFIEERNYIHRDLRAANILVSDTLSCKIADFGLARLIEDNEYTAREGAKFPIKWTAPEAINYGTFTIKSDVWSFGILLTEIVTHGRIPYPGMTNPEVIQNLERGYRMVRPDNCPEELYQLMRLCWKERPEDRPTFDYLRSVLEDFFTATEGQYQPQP
Ephrin type-A receptor 2 (Homo sapiens), sequence (P29317 whole entry): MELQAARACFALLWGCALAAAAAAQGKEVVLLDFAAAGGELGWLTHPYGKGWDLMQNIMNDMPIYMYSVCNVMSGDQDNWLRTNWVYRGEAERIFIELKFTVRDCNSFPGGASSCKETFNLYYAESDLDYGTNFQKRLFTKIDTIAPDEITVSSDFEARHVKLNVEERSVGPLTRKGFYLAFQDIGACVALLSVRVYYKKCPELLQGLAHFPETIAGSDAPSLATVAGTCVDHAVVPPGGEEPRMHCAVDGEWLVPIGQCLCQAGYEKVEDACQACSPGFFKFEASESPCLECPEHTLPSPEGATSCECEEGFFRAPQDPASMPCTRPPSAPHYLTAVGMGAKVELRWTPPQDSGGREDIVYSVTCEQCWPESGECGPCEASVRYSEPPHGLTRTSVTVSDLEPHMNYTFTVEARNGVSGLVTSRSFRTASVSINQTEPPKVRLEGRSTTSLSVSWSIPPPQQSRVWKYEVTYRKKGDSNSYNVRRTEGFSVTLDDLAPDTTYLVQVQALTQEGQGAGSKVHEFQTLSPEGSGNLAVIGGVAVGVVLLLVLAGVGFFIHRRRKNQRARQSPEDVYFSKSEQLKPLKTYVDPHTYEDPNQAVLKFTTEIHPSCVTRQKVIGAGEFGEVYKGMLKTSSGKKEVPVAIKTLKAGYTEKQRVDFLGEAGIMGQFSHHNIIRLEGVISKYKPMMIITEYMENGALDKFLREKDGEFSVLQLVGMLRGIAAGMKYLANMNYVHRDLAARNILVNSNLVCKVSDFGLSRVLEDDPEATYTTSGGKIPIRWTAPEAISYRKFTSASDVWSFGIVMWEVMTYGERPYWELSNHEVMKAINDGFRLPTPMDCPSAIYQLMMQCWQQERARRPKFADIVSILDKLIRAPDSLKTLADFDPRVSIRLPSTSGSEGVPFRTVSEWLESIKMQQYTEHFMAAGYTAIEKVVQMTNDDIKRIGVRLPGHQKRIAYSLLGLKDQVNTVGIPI
Description for Ephrin type-B receptor 4: Inhibition of EphB4 (unknown origin) transfected in CHO cells using [gamma-33P]ATP by radiometric assay

As usually defined, the IC50 is the point on the concentration scale where inhibition reaches its midpoint. Low readings indicate greater potency in that assay, high ones weaker potency in that assay. In general, Papp B→A refers to the apparent permeability from the basolateral to the apical side of a cell layer. For the compound `CCCCn1c(-c2ccccc2C)cn2c3c(=O)[nH]c(=O)n(C)c3nc12`, the values for the IC50 (in data set [1]; in data set [3]; at Ephrin type-B receptor 4) were 284 nM, 493 nM and 82 nM, respectively. Also, the results for the Activity in data set [2] and in data set [4] were 6% and 10%, respectively. Also, the basolateral-to-apical permeability (Papp B→A) at 2 h in data set [5] turned out to be 28.1 ×10⁻⁶ cm/s.
